“Also recorded” adds a separate entry of the source.

One experiment has as its system JFH-1 HCV. To be noted: viral titer at 5 μM or 15 μM compared to untreated control. An excerpt:
In vitro assay for anti-HCV efficacy. HCV studies typically involve infected patients and chimpanzees. However, recently, a robust HCV infection system was developed with cells derived from the Huh-7 human hepatoma cell line. It is based on the unique JFH-1 HCV consensus cDNA derived from an HCV patient. Using reverse genetics, the infectious virus can be rescued from this HCV clone. The recovered viable JFH virus can be passaged serially in Huh-7 cells. For this reason, this system is amenable for evaluating the activity of test compound for their anti-HCV efficacy.
Briefly, 6×10^3 Huh7-1 cells are incubated overnight in each well of collagen-coated BioCoat 96-well plates (BD Biosciences, Bedford, Mass.) in 0.2 ml 10% medium composed of Dulbecco's modified Eagle's medium supplemented with 10% fetal bovine serum. Subsequently, at 2 day intervals, the cultures are replenished with fresh 0.2 ml 10% medium. After the cultures become confluent, they continue to be replenished at 2 day intervals with fresh 0.2 ml 10% medium that also includes 1% dimethyl sulfoxide (DMSO). After 20 days of these replenishments, the Huh7-1 cultures are incubated with fresh 1% medium (same as 10% medium except that the serum level is 1%) containing HCV at a multiplicity of infection (MOI) of 0.05 focus forming units (ffu)/cell. The HCV (JFH-lwt Huh7) stock titer is 1.5×10^5 ffu/mL. The next day (day 1 post-infection) and 2 days later (day 3 post-infection) the media are replenished with fresh 1% medium containing the test compounds dissolved in DMSO. On the 5th day of treatment with the compounds, cell lysates are collected for RNA isolation and Real Time-quantitative Reverse Transcription Polymerase Chain Reaction (RT-qPCR) and culture media are collected for cytotoxicity analysis.
Total RNA is isolated from cells by the guanidine thiocyanate method using standard protocols. One μg RNA is used for cDNA synthesis using TaqMan reverse transcription reagents (Applied Biosystems, Foster City, Calif.) followed by real-time PCR using an Applied Biosystems 7300 real-time thermocycler. Thermal cycling consists of initial denaturation of 10 min at 95° C. followed by 40 cycles of denaturation (15 s at 95° C.) and annealing/extension (1 m at 60° C.). HCV and human glyceraldehyde-3-phosphate dehydrogenase (GAPDH) RNA levels are determined relative to a standard curve of serial dilutions of plasmid containing JFH-1 HCV or GAPDH cDNA. The PCR primers used to detect GAPDH and HCV are: GAPDH (NMX002046) 5′-[…]-3′(SEQ ID NO: 16) (sense) and 5′-[…]-3′(SEQ ID NO: 17) (anti-sense) JFH-1 HCV (AB047639) 5′-[…]-3′(SEQ ID NO: 18) (sense) and 5′-[…]-3′(SEQ ID NO: 19) (anti-sense).

In experiment [1] the test system is Bovine Viral Diarrhea Virus strain NADL. As to the kind of experiment: Anti-BVDV efficacy, cytopathic (CPE) assay in Bovine Turbinate cells (MTT). The experiment is classed as cell-based. The conditions noted are these: cell survival at 10 μM compared to untreated control; TABLE 4(a). Here is the method: Assay for Anti-BVDV efficacy. Bovine Turbinate (BT) cells maintained as monolayers in disposable cell culture labware are used for the antiviral efficacy test. Prior to testing, host cell cultures are seeded onto the 96-well cell culture plates and used approximately 48 hours after seeding. […] The growth medium (GM) and maintenance medium (MM) include Dulbecco's Modified Eagle Media (DMEM) with L-glutamine (ATCC #30-2002), 10% Horse serum and penicillin/streptomycin (10,000 units of penicillin and 10,000 μg of streptomycin per mL, Life Technologies #15140-122 or similar) for a final concentration of 100 units penicillin and 100 μg streptomycin in the medium. Bovine Viral Diarrhea Virus strain NADL from BSLI high-titer virus stock is used. Prior to use, aliquots of the stock virus are removed and thawed from a −70° C. freezer. The BVDV is diluted in a maintenance medium (MM) to obtain 0.1 Multiplicity of Infection (MOI). Cytopathic (CPE) assay. CPE refers to degenerative changes in BT tissue culture induced by BVDV as a consequence of its multiplication. BT cell cultures are washed with PBS, and 100 μL aliquots of MM are added to the cells and incubated in a CO2 incubator for 2 hours. After incubation, the MM is removed; the cells washed again with PBS and overlaid with 100 μL of the different concentrations of test compounds. The plates are incubated in a CO2 incubator for 48 to 72 hours. […] This assay is a colorimetric assay that measures the activity of enzymes that reduce MTT to the purple color formazan dye. CPE is confirmed using an Inverted Compound Microscope.
On the technique in general: Damage to the host cells serves as the signal in cytopathic effect assays.

For experiment [2], the system named is HIV-Bal. As to the kind of experiment: HIV entry (real time RT-PCR of HIV LTR in pre-treated PBMCs). The conditions noted are these: 10 μM or 25 μM; PBMCs pre-treated 1 h and 4 h. The experiment is classed as cell-based, HIV-1. The source says: The following primers are used to amplify HIV transcripts: HIV LTR, Forward 5′-[…] (SEQ ID NO: 1) and Reverse 5′-[…] (SEQ ID NO: 2) and GAPDH—Forward 5′-[…] (SEQ ID NO: 3) and Reverse 5′-[…] (SEQ ID NO: 4). GADPH is used as endogenous control.
For orientation: Real-time PCR tracks product formation cycle by cycle.

Experiment [3] has as its system HIV-Bal. As to the kind of experiment: HIV reverse transcription assay (2LTR circles in infected PBMCs). The conditions noted are these: 72 h post-infection; in comparison with vehicle (DMSO). In kind it is cell-based, HIV-1. The method, then: HIV reverse transcription assay. Compounds described herein inhibit 2LTR circles. Stimulated PBMCs are infected with HIV-Bal (2 ng/mL per 10^6 cells) for 5 h. PBMCs are then treated with compounds at desired concentrations and AZT (control) for 72 h post-infection. The cells are then washed three times with media and genomic DNA is prepared from samples using DNeasy Blood and Tissue Kit (Qiagen). For real time PCR analysis, the following primers are used to amplify 2LTR circles (by-products of reverse transcription): Forward 5′-[…] (SEQ ID NO: 5) and Reverse 5′-[…] (SEQ ID NO: 6). […] All results represent two or three independent experiments each performed in quadruplicates; *=p<0.05, **=p<0.01, ***=p<0.001 in comparison with vehicle ([…]).

The test system of experiment [4] is HIV-Bal. Description: HIV genomic DNA integration (ALU-PCR in infected PBMCs). In kind it is cell-based, HIV-1. The conditions noted are these: 72 h post-infection; in comparison with vehicle (DMSO). The method, then: HIV Genomic DNA Integration. […] Stimulated PBMCs are infected with HIV-Bal (2 ng/mL per 10^6 cells) for 5 h. The PBMCs are then treated with compounds at desired concentrations and AZT (control) for 72 h post-infection. The cells are then washed three times with media. Genomic DNA is prepared from samples using DNeasy Blood and Tissue Kit (Qiagen). ALU-PCR is performed followed by real time PCR to quantify integrated viral genome. The following primers are used to amplify HIV transcripts: HIV LTR, Forward 5′-[…] (SEQ ID NO: 1) and Reverse 5′-[…] (SEQ ID NO: 2) and GAPDH—Forward 5′-[…] (SEQ ID NO: 3) and Reverse 5′-[…] (SEQ ID NO: 4). GADPH is used as endogenous control.

Experiment [5] concerns HIV-Bal. As to the kind of experiment: HIV transcription (Rev, Gag and Env transcripts in infected PBMCs). The experiment is classed as cell-based, HIV-1. To be noted: 72 h post-infection; in comparison with vehicle (DMSO). The method, then:
HIV transcription. […] Stimulated PBMCs are infected with HIV-Bal (2 ng/mL per 10^6 cells) for 4-6 h. PBMCs are then treated with compounds at desired concentrations and AZT (control) for 72 h post-infection. The cells are then washed three times with media and genomic RNA is prepared from samples using RNEasy MiniKit (Qiagen). Real time RT-PCR is performed to detect mature viral early (Rev) and late transcripts (Gag and Env). The following primers are used to amplify HIV transcripts: Rev, Forward 5′-[…] (SEQ ID NO: 7) and Reverse 5′-[…] (SEQ ID NO: 8); Env, Forward 5′-[…] (SEQ ID NO: 9) and Reverse 5′-[…] (SEQ ID NO: 10); Gag, Forward 5′-[…] (SEQ ID NO: 11) and Reverse 5′-[…] (SEQ ID NO: 12); GAPDH, Forward 5′-[…] (SEQ ID NO: 3) and Reverse 5′-[…] (SEQ ID NO: 4). GADPH is used as endogenous control.

Consider `CCc1ccc(CN2CCC(C(=O)Nc3ccc(-c4nc5ccccc5[nH]4)cc3)CC2)o1` [Example 59], for which the “HCV Antiviral Activity” value in the experiment with JFH-1 HCV was “++ (“++” corresponds to ≦60% viral titer at 5 μM)”. The “BVDV Antiviral Activity” value in experiment [1] is recorded as “++ (“++” corresponds to >50 but <75 cell survival at 10 μM)”.
Take `CC#CC(=O)N1CCC(C(=O)Nc2cccc(-c3cc4ccccc4[nH]3)c2)CC1` [Example 57]: the “HCV Antiviral Activity” value in the experiment with JFH-1 HCV is “++ (“++” corresponds to ≦60% viral titer at 5 μM)”. Further, the “effect on HIV entry” value in the experiment on HIV-Bal [2] is “did not have an effect on HIV entry”. In addition, the “inhibition of HIV reverse transcription (2LTR circles)” value with HIV-Bal [3] is “significantly inhibits HIV reverse transcription”. For the same molecule, the “inhibition of HIV viral integration” value with HIV-Bal [4] is on record as “significantly inhibits viral integration at each concentration; also recorded: significantly inhibits HIV viral integration”. Further, the “inhibition of HIV transcription (Rev, Gag, Env)” value in the experiment with HIV-Bal [5] was “significantly inhibits viral transcription at each concentration; also recorded: significantly inhibits HIV transcription”. In addition, the “BVDV Antiviral Activity” value in experiment [1] was “+++ (“+++” corresponds to ≧75 cell survival at 10 μM)”.
`COc1cccc(CN2CCC(C(=O)Nc3ccc(-c4nc5ccccc5[nH]4)cc3)CC2)c1` [Example 58]: in the experiment on JFH-1 HCV, the “HCV Antiviral Activity” value is recorded as “++ (“++” corresponds to ≦60% viral titer at 5 μM)”. For the same molecule, the “BVDV Antiviral Activity” value in experiment [1] is recorded as “+++ (“+++” corresponds to ≧75 cell survival at 10 μM)”.
With `Cc1c[nH]c2ncnc(N3CCC(C(=O)Nc4ccc(-c5nc6ccccc6[nH]5)cc4)CC3)c12` [Example 99], the “BVDV Antiviral Activity” value in experiment [1] is given as “+++ (“+++” corresponds to ≧75 cell survival at 10 μM)”.
With `Cc1c[nH]c2ncnc(N3CCC(C(=O)Nc4cccc(-c5cccc(F)c5)c4)CC3)c12` [Example 102], in experiment [1], the “BVDV Antiviral Activity” value is on record as “+++ (“+++” corresponds to ≧75 cell survival at 10 μM)”.
Regarding `O=C(Nc1cccc(-c2cc3ccccc3[nH]2)c1)C1CCN(C(=O)c2cncs2)CC1` [Example 60], in the experiment with JFH-1 HCV, the “HCV Antiviral Activity” value is “+ (“+” corresponds to ≦60% viral titer at 15 μM)”. Further, the “BVDV Antiviral Activity” value in experiment [1] is “+++ (“+++” corresponds to ≧75 cell survival at 10 μM)”.

The values are drawn from patent US9511070B2, “Heterocyclyl carboxamides for treating viral diseases” (NOVADRUG, LLC, priority 2012, dated 2016).
